From patent US20050175550A1, “Compositions for oral use” (priority 2000, published 2005)
In brackets after ≈: the same amount, converted by molar mass.

Columns and labels:
Test in all cases: MIC by agar plate dilution method on standard strains (Example 3)
Format in all cases: cell-based
Details in all cases: read-out: MIC
[1] = system: Moraxella (Branhamella) catarrhalis ATCC25240
Procedure: (§1) Drug solutions at a concentration 10 times as high as the maximum applicable concentration were prepared as original solutions of test drugs given in Table 2 (as to solvents used for this purpose, reference should be made also to Table 2). Serial two-fold dilution series of the original solutions were prepared at desired stages, and 1 ml each of the diluted drug solutions was added to 9 ml of media given in Table 3 to prepare drug plates. […] • 1) Bacterial solutions stocked at −80° C. were inoculated on agar media (as to media used, reference should be made to Table 3), and then incubated at 37° C. overnight. When desired, subculturing was conducted once more on the same agar media (by overnight incubation at 37° C.). • 2) Colonies growing on the agar media were sampled by a platinum loop, suspended in liquid media (reference should be made to Table 3) and statically incubated at 37° C. for 18 hours (preculturing). • 3) Preculturing was continued up to McFarland 0.5 (McFarland 0.5=about 10^8 CFU/ml), and then the culture broths were diluted with Muellar Hinton Broth to make 10^6 CFU/ml. 5 μl each of the diluted solutions were inoculated on the above-mentioned drug plates by an inoculator Microplanter. […] Thus, bacterial solutions at about 10^8 CFU/ml can be easily prepared by use of McFarland 0.5. Bacterial solutions at such a turbidity are commercially available, but can be easily prepared.

[2] = system: Moraxella (Branhamella) catarrhalis ATCC43617
Procedure: as §1

[3] = system: Pseudomonas aeruginosa ATCC27853
Procedure: as §1

[4] = system: Serratia marcescens ATCC13880
Procedure: as §1

[5] = system: Staphylococcus aureus ATCC29247
Procedure: as §1

[6] = system: Staphylococcus aureus ATCC6538P
Procedure: as §1

[7] = system: Streptococcus agalactiae ATCC13813
Procedure: as §1

[8] = system: Streptococcus pneumoniae ATCC49619
Procedure: as §1

[9] = system: Streptococcus pneumoniae ATCC6301
Procedure: as §1

[10] = system: Streptococcus pneumoniae ATCC6302
Procedure: as §1

[11] = system: Streptococcus pneumoniae ATCC6303
Procedure: as §1

[12] = system: Streptococcus pneumoniae ATCC6306
Procedure: as §1

[13] = system: Streptococcus pyogenes ATCC12344
Procedure: as §1

[14] = system: Streptococcus pyogenes ATCC12353
Procedure: as §1

[15] = system: Streptococcus pyogenes ATCC12385
Procedure: as §1

`CN(C)[C@@H]1C(O)=C(C(N)=O)C(=O)[C@@]2(O)C(O)=C3C(=O)c4c(O)cccc4[C@@](C)(O)[C@H]3C[C@@H]12` [TC, Tetracycline] showed an MIC [1] of 0.2 µg/mL (≈ 0.45 µM), an MIC [2] of 0.2 µg/mL (≈ 0.45 µM) and an MIC [3] of 12.5 µg/mL (≈ 28.1 µM). For the same molecule, the MIC [4] was 100 µg/mL (≈ 225 µM), the MIC [5] was 0.78 µg/mL (≈ 1.76 µM) and the MIC [6] was 0.2 µg/mL (≈ 0.45 µM). The MIC [7] was 0.2 µg/mL (≈ 0.45 µM), the MIC [8] was 0.1 µg/mL (≈ 0.225 µM) and the MIC [9] was 0.1 µg/mL (≈ 0.225 µM). It also gave an MIC [10] of 0.2 µg/mL (≈ 0.45 µM), an MIC [11] of 0.1 µg/mL (≈ 0.225 µM) and an MIC [12] of 0.2 µg/mL (≈ 0.45 µM). The MIC [13] was 0.2 µg/mL (≈ 0.45 µM), the MIC [14] was 0.2 µg/mL (≈ 0.45 µM) and the MIC [15] was 0.2 µg/mL (≈ 0.45 µM).
